Laboratory results as given in patent US9174964B2, “AMPK-activating piperidinyloxy-substituted 2,3-dihydro-1H-indene-1-amine compounds and pharmaceutical compositions including the same” (Rigel Pharmaceuticals, Inc., priority 2007, dated 2015).
pEC50: −log10 of the molar value.

The molecules below were run against AMPK (assay: AMPK activation, enzyme-linked immunosorbent assay). Settings: Table 2, AMPK activation, ELISA.
Assay type: biochemical
Description: Compounds 1-50 of Table 1 were assayed for their ability to activate AMPK using an enzyme-linked immunosorbent assay.
Compounds 51-60 of Table 1 were assayed for their ability to activate AMPK using an enzyme-linked immunosorbent assay.
Compounds 61-131 of Table 1 were assayed for their ability to activate AMPK using an enzyme-linked immunosorbent assay.
Compounds 137-141 and 143-155 of Table 1 were assayed for their ability to activate AMPK using an enzyme-linked immunosorbent assay.
Compounds 156-160 of Table 1 were assayed for their ability to activate AMPK using an enzyme-linked immunosorbent assay.

| pEC50 | SMILES |
| --- | --- |
| 5.30 to 6.00 | O=C(NC1CCN(Cc2ccc(F)cc2)CC1)c1ccnc(OC2CCN(c3ccc(C(F)(F)F)cc3)CC2)c1 [Compound 22, N-(1-(4-fluorobenzyl)piperidin-4-yl)-2-(1-(4-(trifluoromethyl)phenyl)piperidin-4-yloxy)isonicotinamide] |
| 5.30 to 6.00 | O=C(NC1CCN(Cc2ccccc2)CC1)c1ccc(OC2CCN(c3ccc(C(F)(F)F)cc3)CC2)cn1 [Compound 38, N-(1-benzylpiperidin-4-yl)-5-(1-(4-(trifluoromethyl)phenyl)piperidin-4-yloxy)picolinamide] |
| > 7.00 | N#Cc1ccc(CN2CCC(NC(=O)c3cncc(OC4CCN(c5ccc(C(F)(F)F)cc5)CC4)c3)CC2)cc1 [Compound 17, N-(1-(4-cyanobenzyl)piperidin-4-yl)-5-(1-(4-(trifluoromethyl)phenyl)piperidin-4-yloxy)nicotinamide] |
| 6.30 to 7.00 | CC(C)(C)OC(=O)N1CCC(NC(=O)c2ccc(OC3CCN(c4ccc(C(F)(F)F)cc4)CC3)nc2)CC1 [Compound 9, tert-butyl 4-(6-(1-(4-(trifluoromethyl)phenyl)piperidin-4-yloxy)nicotinamido) piperidine-1-carboxylate] |

Same assay, conditions: Table 3, AMPK activation, ELISA

| pEC50 | SMILES |
| --- | --- |
| 6.00 to 6.30 | N#Cc1cccc(CN2CCC(NS(=O)(=O)c3ccc(OC4CCN(c5ccc(C(F)(F)F)cc5)CC4)nc3)CC2)c1 [Compound 57, N-(1-(3-cyanobenzyl)piperidin-4-yl)-6-(1-(4-(trifluoromethyl)phenyl)piperidin-4-yloxy)pyridine-3-sulfonamide] |

Same assay, conditions: Table 4, AMPK activation, ELISA

| pEC50 | SMILES |
| --- | --- |
| 6.30 to 7.00 | O=C(NC1CCN(S(=O)(=O)c2cccnc2)CC1)c1cc2ccc(OC3CCN(c4ccc(C(F)(F)F)cc4)CC3)cc2o1 [Compound 106, N-(1-(pyridin-3-ylsulfonyl)piperidin-4-yl)-6-(1-(4-(trifluoromethyl)phenyl)piperidin-4-yloxy)benzofuran-2-carboxamide] |
| 5.00 to 6.00 | O=C(N[C@@H]1CCN(S(=O)(=O)c2cccnc2)C1)c1cc2cc(OC3CCN(c4ccc(C(F)(F)F)cc4)CC3)ccc2o1 [Compound 126, (R)-N-(1-(pyridin-3-ylsulfonyl)pyrrolidin-3-yl)-5-(1-(4-(trifluoromethyl)phenyl)piperidin-4-yloxy)benzofuran-2-carboxamide] |
| > 7.00 | N#Cc1ccc(CN2CCC(NC(=O)c3cc4ccc(OC5CCN(c6ccc(C(F)(F)F)cc6)CC5)cc4o3)CC2)cc1 [Compound 90, N-(1-(4-cyanobenzyl)piperidin-4-yl)-6-(1-(4-(trifluoromethyl)phenyl)piperidin-4-yloxy)benzofuran-2-carboxamide] |
| > 7.00 | N#Cc1ccccc1CN1CCC(NC(=O)c2cc3ccc(OC4CCN(c5ccc(OC(F)(F)F)cc5)CC4)cc3o2)CC1 [Compound 97, N-(1-(2-cyanobenzyl)piperidin-4-yl)-6-(1-(4-(trifluoromethoxy)phenyl)piperidin-4-yloxy)benzofuran-2-carboxamide] |
| 5.00 to 6.00 | CC(C)(C)OC(=O)N1CC[C@@H](NC(=O)c2cc3cc(OC4CCN(c5ccc(C(F)(F)F)cc5)CC4)ccc3o2)C1 [Compound 120, (R)-tert-butyl 3-(5-(1-(4-(trifluoromethyl)phenyl)piperidin-4-yloxy)benzofuran-2-carboxamido)pyrrolidine-1-carboxylate] |

Same assay, conditions: Table 6, AMPK activation, ELISA

| pEC50 | SMILES |
| --- | --- |
| > 6.30 | N#Cc1ccc(CN2CCC(NC3CCc4cc(OC5CCN(c6ccc(C(F)(F)F)cc6)CC5)ccc43)CC2)cc1 (stereo not drawn) [Compound 160, 4-((4-(5-(1-(4-(trifluoromethyl)phenyl)piperidin-4-yloxy)-2,3-dihydro-1H-inden-1-ylamino)piperidin-1-yl)methyl)benzonitrile] |
| 6.00 to 6.30 | Fc1ccc(CN2CCC(NC3CCc4cc(OC5CCN(c6ccc(C(F)(F)F)cc6)CC5)ccc43)CC2)cc1 (stereo not drawn) [Compound 159, 1-(4-fluorobenzyl)-N-(5-(1-(4-(trifluoromethyl)phenyl)piperidin-4-yloxy)-2,3-dihydro-1H-inden-1-yl)piperidin-4-amine] |
